Like-named read-outs stand apart in the source and are kept apart here.
What was measured:
[1] = tested on: A/England/195/2009 (E195) influenza A virus; assay: microbe, parasite or virus in culture; assay type: cell-based; conditions: for IC50: read-out: Virus culture IC50
[2] = tested on: Eng195 M2-N31 TM/CD peptides; assay type: biochemical
Eng195 in MDCK culture = assay type: cell-based, influenza A virus
H1N1 WSN virus = conditions: read-out: EC50 in antiviral plaque assay; cited from earlier work
[3] = tested on: M2-N31 and M2-S31 CD peptides; assay type: biochemical, Influenza A/England/195/2009 (H1N1)

| SMILES | antiviral effect versus Eng195 in culture [1] | TM/CD peptide preference in titration [2] | Virus culture Fold Titre Reduction (80 µM) [1] [x] | IC50 ([1]; Influenza A virus, MDCK) [nM] | combination effect with M2WJ332 (Eng195 in MDCK culture) | further results |
| --- | --- | --- | --- | --- | --- | --- |
| CN1CCN(C(=O)c2ccc3ccccc3c2)CC1 [B] | neither B nor K exhibited antiviral effects | – | – | – | – | – |
| Cc1c2ccccc2n2cc(-c3ccccc3)nc(C(C)C)c12 [DL7] | – | preference for CD peptides but with activity versus TM at higher concentrations | 100 | 1480 | antagonism | combination effect with L1.1 (Eng195 in MDCK culture): antagonism |
| Cc1ccc2nc(Oc3ccccc3)ccc2c1 [DP9] | – | preferential inhibition of CD peptides | 100 | 25000 to 50000 | synergistic | IC50 [1]: > 25000 nM |
| c1cc2nc(C34CC5CC(CC(C5)C3)C4)[nH]c2cn1 [D] | antiviral effects | – | – | – | – | – |
| Cc1ncc(C23CC4CC(CC(C4)C2)C3)[nH]1 [H] | antiviral effects | – | – | – | – | – |
| OCCNC12CC3CC(CC(C3)C1)C2 [J] | antiviral effects | – | – | – | – | – |
| O=C(Nc1nnc[nH]1)c1cc2ccccc2o1 [K] | neither B nor K exhibited antiviral effects | – | – | – | – | – |
| COc1ccccc1NC(=S)NC(=O)c1cc2ccccc2cc1OC [L1.1] | – | equivalent activity versus both TM/CD | 1000 | 1330 | synergistic | reduction in virus titre [1]: ~3 log10; combination effect with Zanamivir (Eng195 in MDCK culture): synergistic |
| c1csc(-c2cc(CNC34CC5CC(CC(C5)C3)C4)no2)c1 [M2WJ332, (3S,5S,7S)-N-{[5-(thiophen-2-yl)-1,2-oxazol-3-yl]methyl}tricycle[3.3.1.1~3,7~]decan-1-aminium, reference compound] | – | – | 100 | 1180 | – | reduction in virus titre [1]: 1–2 log10; IC50 [1]: 1180 nM; EC50 (H1N1 WSN virus): 153 nM |
| CCCCCCCCCN1C[C@H](O)[C@@H](O)[C@H](O)[C@H]1CO [NNDNJ, reference compound] | antiviral effects | – | – | – | – | effect on M2 oligomerisation [3]: disrupted oligomerisation |
